How the values were obtained:
[1] = Real time in situ AFM step velocity measurements of L-cystine crystal growth with additive; conditions: for Vo/V (inverse of V/Vo): higher = more effective inhibition; for V/Vo (normalized velocity of step advancement): supersaturated L-cystine solution, lower = more effective inhibition
Experimental: A Digital Instruments (Santa Barbara, Calif.) Nanoscope IIIa Multimode system is used for topographical and lattice imaging. All measurements are performed in contact mode using Veeco NP_B Si3N4 cantilever tips with a spring constant of 0.12 N/m (triangular, 196 μm length, 41 μm width) on a glass cantilever holder, and a liquid cell is created for in situ step velocity measurements. All L-cystine crystals for AFM measurements are prepared by the method described herein. Crystals are transferred onto an AFM specimen disk coated with partially cured (1 hr) UV-curable optical cement (Type SK-9, EMS Acquisition Corp.) by gently pressing the disk against hexagonal platelets or L-cystine needles isolated by filtration (Whatman Nuclepore membrane, 8 μm). The (0001) face of hexagonal platelets is exposed normal to the disk for AFM analysis with growth occurring along equivalent {1010} faces in the lateral directions, while the sides of L-cystine needles are exposed normal to the disc. The partially cured polymer with adhered crystals is completely cured by additional UV radiation (2 hrs) prior to analysis. Measurements of individual step heights for hexagonal L-cystine crystals are acquired in air (contact mode) at a scan rate of 1.00 Hz and 256 samples per line over a 15×15 μm^2 surface area. Integral and proportional gains are set to the highest possible values without obtaining feedback. Four hexagonal crystals (5 areas per crystal) are analyzed for statistical step height distributions, which are calculated from >10^3 individual steps. Lattice-resolved images of crystal surfaces are acquired in water (contact mode) using a scan rate of 112 Hz over a 12×12 nm^2 area.
Real time in situ step velocity measurements of L-cystine growth are assessed along six structurally-equivalent {1010} faces of the hexagonal structure. A liquid cell is created with the glass cantilever tip holder, and working solutions are injected through a 1-mL syringe. Prior to injecting the growth medium (i.e. supersaturated L-cystine solution), crystals are etched with deionized water in the fluid cell for one hour to remove amorphous deposits or impurities that may be present on the surface. Supersaturated solutions (0.5 g/L) are generated by adding L-cystine to deionized water, boiling the solution on a heating mantle for 20 min to completely dissolve the solute, and allowing the solution to cool for 20 min on the heating mantle before transferring the solution (via syringe) to the AFM fluid cell. This method allows the solution to gradually cool to room temperature prior to AFM measurements in an effort to minimize premature nucleation of L-cystine in the growth solution.
The effect of the compound of invention (additives) on crystal growth rates is investigated. Additives are combined with the supersaturated L-cystine following the 20 min cool down period (as discussed above) to avoid denaturing biological additives at higher temperature. A small volume (0.2 mL) of concentrated additive is mixed with 4.8 mL of L-cystine to generate 0.48 g/L L-cystine solutions with additives of varying concentrations. Control measurements without additive are performed in a similar manner, replacing concentrated additive solutions deionized water to maintain a constant L-cystine concentration. Data collection is started immediately after injecting the working solution into the AFM liquid cell. For each measurement, growth is first assessed in the absence of additive, then in the presence of additive on the identical area of the crystal surface to analyze relative changes in step velocity. Measurements are acquired at static conditions without refreshment of growth solution using supersaturated L-cystine solutions […] than the solubility of L-cystine in water, which is reported as 0.4-0.7 mM (pH 7, 25° C.). […] At static conditions, solute is depleted from solution during growth, leading to a slight decrease in the step velocity with increasing time. […]

[2] = pH 7, 25° C.; cited from earlier work

SMILES	Vo/V (inverse of V/Vo) ([1]; additive 0.015 mM)	V/Vo (normalized velocity of step advancement) ([1]; additive 0.015 mM)	other results
COC(=O)[C@@H](N)CO [Compound 19, L-serine methyl ester]	–	–	Vo/V (inverse of V/Vo) ([1]; additive 0.03 mM): 0.93; V/Vo (normalized velocity of step advancement) ([1]; additive 0.03 mM): 1.07
CC(C)(C)OC(=O)N[C@@H](CSSC[C@H](NC(=O)OC(C)(C)C)C(=O)O)C(=O)O [Compound 11, Nα,Nα′-di-Boc-L-cystine, reference compound]	–	–	Vo/V (inverse of V/Vo) ([1]; additive 0.09 mM): 1.23; V/Vo (normalized velocity of step advancement) ([1]; additive 0.09 mM): 0.81
CC(C)OC(=O)[C@@H](N)CSSC[C@H](N)C(=O)OC(C)C [Compound 6, L-cystine diisopropyl ester]	1.55	0.64	–
COC(=O)[C@@H](N)CS [Compound 3, L-cysteine methyl ester]	–	–	Vo/V (inverse of V/Vo) ([1]; additive 0.03 mM): 2.05; V/Vo (normalized velocity of step advancement) ([1]; additive 0.03 mM): 0.49
NCCSSCCN [Compound 16, cystamine]	1	1	–
N[C@@H](CCCC[C@H](N)C(=O)O)C(=O)O [Compound 14, L-diaminooctanedioic acid]	1.03	0.97	–
COC(=O)[C@@H](N)CSSC[C@H](N)C(=O)O [Compound 7, L-cystine methyl ester]	1.47	0.68	–
COC(=O)[C@@H](N)CCSSCC[C@H](N)C(=O)OC [Compound 5, L-homocystine dimethyl ester]	1.59	0.63	–
COC(=O)[C@@H](N)CSSC[C@H](N)C(=O)OC [Compound 1, L-cystine dimethyl ester]	2.62	0.38	–
CCOC(=O)[C@@H](N)CSSC[C@H](N)C(=O)OCC [Compound 4, L-cystine diethyl ester]	1.79	0.56	–
COC(=O)[C@@H](N)CCCC[C@H](N)C(=O)OC [Compound 12, L-dimethyl 2,7-diaminooctanedioate]	1.09	0.92	–
N[C@@H](CS)C(=O)O [Compound 17, L-cysteine, reference compound]	–	–	Vo/V (inverse of V/Vo) ([1]; additive 0.03 mM): 1; V/Vo (normalized velocity of step advancement) ([1]; additive 0.03 mM): 1
N[C@@H](CSSC[C@H](N)C(=O)Oc1ccccc1)C(=O)Oc1ccccc1 [Compound 2, L-cystine diphenyl ester]	2.44	0.41	–
CC(S)C(=O)NCC(=O)O (centres unmarked) [Compound 9, N-(2-Mercapto-propionyl)glycine, reference compound]	–	–	Vo/V (inverse of V/Vo) ([1]; additive 0.03 mM): 1.35; V/Vo (normalized velocity of step advancement) ([1]; additive 0.03 mM): 0.74
N[C@@H](CCSSCC[C@H](N)C(=O)O)C(=O)O [Compound 18, L-Homocystine, reference compound]	0.95	1.05	–
COC(=O)[C@@H](N)C/C=C/C[C@H](N)C(=O)OC [Compound 10, L-dimethyl 2,7-diaminooct-4-enedioate]	1.23	0.81	–
N[C@@H](CSSC[C@H](N)C(=O)O)C(=O)O [L-cystine]	–	–	solubility of L-cystine in water [2]: 400 to 700 µM
CC(C)(C)OC(=O)[C@@H](N)CSSC[C@H](N)C(=O)OC(C)(C)C [Compound 8, L-cystine ditert-butyl ester]	1.43	0.7	–

Source: patent US10759748B2, “Compounds as L-cystine crystallization inhibitors and uses thereof” (NEW YORK UNIVERSITY, priority 2011, dated 2020)
